{
  "source": "paper PMC12564639",
  "about": "“Discovery of a Novel Anticoagulant Cystine Knot Peptide from Spider Venom Gland Transcriptome” (International Journal of Molecular Sciences, 2025)",
  "key": {"[1]": {"conditions": "cited from earlier work", "from_the_text": "(§1) Anticoagulants are standard therapy for venous thromboembolism and arterial thrombosis-mediated disorders, particularly in acute settings."}, "[2]": {"conditions": "ref Diapharma Group (supplier named); enzyme not given; cited from earlier work", "from_the_text": "Human Activated Protein C (APC-1.0) was purchased from Enzyme Research Laboratories, Inc., South Bend, IN, USA. […] Activated Partial Thromboplastin Time (APTT) Test Kit (TC0306) was bought from Senkey Biotechnology Co., Ltd., Kunming, China. Prothrombin Time (PT) Test Kit (GMS10176) was purchased from GENMED Scientifics Inc., Shanghai, China. Streptavidin (SA) Biosensors (18-5019) were obtained from Sartorius AG, Göttingen, Lower Sa ..."}, "[3]": {"conditions": "venom of Eresus niger; cited from earlier work", "from_the_text": "Studies have focused on the use of venom peptides for anticoagulation therapy. […] These peptides typically target key components of the coagulation cascade with high specificity, potency, and selectivity."}, "mouse tail bleeding": {"tested_on": "mouse tail bleeding", "assay": "Tail bleeding time", "type": "in vivo, C57BL/6J mice", "conditions": "heparin sodium 1000 U/kg i.v., 10 min after administration; n = 6; vehicle 89.8 s", "procedure": "The C57BL/6J mice (male, 6–8 weeks old) were purchased from Beijing Vital River Laboratory Animal Technology Co., Ltd. (Beijing, China). All animal studies were performed under the approval of the Ethics Committee of the Laboratory Animal Welfare of the Kunming Institute of Zoology, Chinese Academy of Sciences (IACUC-RE-2025-03-010).\nThe mouse tail-bleeding assay was performed to evaluate the bleeding risk associated with GC38 treatment. Male C57BL/6J mice (6–8 weeks, n = 6 per group) were randomized to receive intravenous injection of PBS (negative control), GC38 (2 or 4 mg/kg in PBS), or heparin sodium (1000 U/kg, positive control). The assay was conducted 10 min after administration. Mice were anesthetized, and a 2 mm segment of the tail tip was surgically transected using a sterile scalpel. Immediately after the incision, the tail was immersed in prewarmed PBS (37 °C) to facilitate blood flow. Bleeding time was recorded from the moment of the incision until the complete cessation of bleeding (no blood flow for 60 s)."}, "thrombin": {"tested_on": "thrombin", "conditions": "cited from earlier work", "from_the_text": "as §1"}, "[4]": {"target": "Human Activated Protein C (human) (UniProt P04070)"}},
  "note": "Like-named read-outs stand apart in the source and are kept apart here. Bridge positions count the residues as written; N and C are the ends. Square brackets hold non-standard residues; d marks the D form. Ends that are not written are not given here. * marks the point of attachment. pNA = O=[N+]([O-])c1ccc(N*)cc1; pGlu = O=C1CC[C@@H](C(=O)O)N1",
  "data": [
    {"molecule": "bivalirudin: Another synthetic peptide, bivalirudin", "values": [
      {"measurement": "major bleeding events", "setting": "[1]; percutaneous coronary intervention (PCI), compared to heparin", "value": "reduction in major bleeding events compared to heparin"}
    ]},
    {"molecule": "heparin", "values": [
      {"measurement": "bleeding risk", "setting": "[1]; clinical", "value": "significant bleeding risks"}
    ]},
    {"molecule": "[pGlu]-Pro-Arg-pNA [S-2366, Chromogenix substrate S-2366]", "values": [
      {"measurement": "Km", "setting": "[2]", "value": 200, "unit": "µM"},
      {"measurement": "kcat", "setting": "[2]", "value": 190, "unit": "s⁻¹"}
    ]},
    {"molecule": "phospholipase A2", "values": [
      {"measurement": "anticoagulant activity", "setting": "[3]", "value": "anticoagulant activity"}
    ]},
    {"molecule": "heparin sodium [reference compound]", "values": [
      {"measurement": "tail bleeding time", "setting": "mouse tail bleeding", "value": 127.6, "unit": "s"}
    ]},
    {"molecule": "hirudin", "values": [
      {"measurement": "bleeding risk", "setting": "[1]; heparin-induced thrombocytopenia (HIT) management", "value": "lower bleeding risk than conventional therapies"},
      {"measurement": "thrombin inhibition", "setting": "thrombin", "value": "thrombin inhibitor"}
    ]},
    {"molecule": "GCSGKGARCAPSKCCSGLSCGRHGGNMYKSCEWNWKTG (disulfide 14-31, 2-15, 9-20)", "note": "[GC38]", "values": [
      {"measurement": "APC enzymatic activity at Vmax on chromogenic substrate S-2366 (APC 0.7145 μM, S-2366 402.1 μM), GC38 0.1 to 10 μM, concentration-dependent; highest value at 10 μM", "setting": "[4]", "value": 171, "unit": "%"}
    ]}
  ]
}
